The subject of one series is Tau-BiFC cells. Briefly: Cytotoxicity (cell survival rate) in tau-BiFC cells. Particulars: group treated with Forskolin alone = 100%. An outline of the steps: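 Tau-BiFC cells co-treated 48 h with Forskolin ([…]) and compound at 0.03–30 μM. BiFC fluorescence quantified by imaging, IC50 by nonlinear regression; cytotoxicity as Hoechst-stained nuclei count relative to Forskolin-only wells (100% survival).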

A short description of series [1]: Liver microsomal stability (human). Format: in vitro ADME. Particulars: amount of substrate remaining; 1 μM, 0.25 mg/mL microsomes, 37° C., 30 minutes. An outline of the steps:
(§1)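 Compound at 1 μM with microsomes (0.25 mg/mL each species) in 0.1 M phosphate buffer pH 7.4, preincubated 5 min at 37 °C, then 30 min at 37 °C after NADPH-generating system addition. Quenched with acetonitrile plus internal standard; remaining substrate measured by LC-MS/MS.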
In general terms: Liver microsomes are a subcellular fraction often used to study metabolism.

Series [2] is described as follows: Liver microsomal stability (rat). Format: in vitro ADME. Particulars: amount of substrate remaining; 1 μM, 0.25 mg/mL microsomes, 37° C., 30 minutes. An outline of the steps:
as §1

The nature of series [3]: Pharmacokinetics in SD rat (plasma PK parameters). Format: in vivo. Particulars: for AUCall / clearance / half-life / Cmax / Tmax: SD rat plasma; for F: SD rat, PO 10 mg/kg versus IV. On the procedure:
Specifically, an SD rat of 7 to 8 weeks of age (Core Tech, Hana Trading Co., Ltd.) having a body weight of about 250 g to 300 g was purchased, and was managed in a simple breeding room for small animals set to a temperature of 22° C.±2° C., a relative humidity of 50%±5%, a lighting time of 12 hours (light up at 8:00 A.M., turn off at 8:00 P.M.), and an illuminance of 150 lux to 300 lux. During the entire test period, feed was freely provided, RO water was freely provided, and fasting was performed for 16 hours before the oral administration of a drug. After preparing a drug under the conditions shown in Table 5 below, the drug was intravenously injected (IV) or orally administered (PO). 500 µL of transfused blood was collected in a tube containing sodium heparin and centrifuged at 2° C. to 8° C. at 8,000 rpm for 6 minutes to obtain plasma from the blood. The obtained plasma was added to 180 μL of acetonitrile containing internal standard materials, vortexed, and then centrifuged at 15,000 rpm at 4° C. for 5 minutes to obtain a supernatant. The obtained supernatant was analyzed by LC-MS/MS.
Specific PK parameters were acquired using the Phoenix WinNonlin version 6.4 program (Phersight, USA) and wore calculated with a non-compartmental analysis model.

Data on five molecules can be found in US12590071B2, “Hydrazone derivative in which terminal amine group is substituted with aryl group or heteroaryl group, and use thereof” (KOREA INSTITUTE OF SCIENCE AND TECHNOLOGY, priority 2018, dated 2026).

The clearance is a measure of how efficiently the substance is removed, as volume per time. A high value points to a high capacity for elimination. As usually defined, the half-life is the time needed for the level to fall by half in the phase considered. By Cmax is commonly meant the highest concentration seen after dosing. The Tmax is the time at which the peak concentration occurs. Take `N#CC(C#N)=NNc1ccc(-c2ncccn2)cc1` [Compound 1, (4-(pyrimidin-2-yl)phenyl)carbonohydrazonoyl dicyanide]: the “Cell survival rate (% @ 10 μM)” value in the series with Tau-BiFC cells came out at 74%. In series [1], the “liver microsomal stability, Human (%)” value is recorded as 44.1%. Further, in series [2], the “liver microsomal stability, Rat (%)” value was found to be 28.3%. Besides, in series [3] (IV 1 mg/kg), the AUCall is 7260.0 ± 580.1 hr, ng/mL; the clearance came to 11.5 ± 0.9 mL/min/kg; the half-life is 1.1 ± 1 h. Also, in series [3] (PO 10 mg/kg), the AUCall is given as 4652.8 ± 1158.9 hr, ng/mL; the concentration peaked (Cmax) at 1840 ± 609 ng/mL; the time of peak concentration (Tmax) is 1.7 ± 2.9 h; the half-life is 1.6 ± 1.6 h. For the same molecule, the F in series [3] stood at 32%.

For the molecule `N#CC(C#N)=NNc1ccc(-c2ncc(F)cn2)cc1` [Compound 2, (4-(5-fluoropyrimidin-2-yl)phenyl)carbonohydrazonoyl dicyanide], the “Cell survival rate (% @ 10 μM)” value in the series with Tau-BiFC cells amounted to 59%. For the same molecule, in series [1], the “liver microsomal stability, Human (%)” value worked out at 92.7%. In addition, the “liver microsomal stability, Rat (%)” value in series [2] worked out at 97.2%. Further, in series [3] (IV 1 mg/kg), the AUCall was 7335.6 ± 1794.1 hr, ng/mL; the Cmax amounted to 4280 ± 1390 ng/mL; the time to peak (Tmax) is 5.5 ± 1 h; the clearance amounted to 2.4 ± 0.7 mL/min/kg. The molecule further gave a half-life in series [3] (IV 1 mg/kg) of 1.2 ± 0.3 h. Moreover, in series [3] (PO 10 mg/kg), the AUCall is 19890.5 ± 6049.3 hr, ng/mL. Besides, the F in series [3] is given as 27.1%.

For the molecule `Cc1ncc(-c2ccc(NN=C(C#N)C#N)cc2)s1` [Compound 11, (4-(2-methylthiazol-5-yl)phenyl)carbonohydrazonoyl dicyanide], the “Cell survival rate (% @ 10 μM)” value in the series on Tau-BiFC cells stood at 146.2%. The “liver microsomal stability, Human (%)” value in series [1] is 87.5%. For the same molecule, the “liver microsomal stability, Rat (%)” value in series [2] stood at 49.6%. Besides, in series [3] (IV 2 mg/kg), the AUCall was 11800.37 hr, ng/mL; the peak concentration (Cmax) was found to be 10700 ng/mL; the time to peak (Tmax) amounted to 0.08 h; the clearance was found to be 2.84 mL/min/kg. Also, the half-life in series [3] (IV 2 mg/kg) is 1.05 h. Further, in series [3] (PO 10 mg/kg), the AUCall was 19169.2 hr, ng/mL; the highest concentration (Cmax) amounted to 6900 ng/mL; the time of peak concentration (Tmax) was found to be 0.25 h; the half-life was 2.96 h. Moreover, the F in series [3] came to 32.5%.

`N#CC(C#N)=NNc1ccc(-c2cnc3ccnn3c2)cc1` [Compound 50, (4-(pyrazolo[1,5-a]pyrimidin-6-yl)phenyl)carbonohydrazonoyl dicyanide]: in the series on Tau-BiFC cells, the “Cell survival rate (% @ 10 μM)” value was 76%. Besides, the “liver microsomal stability, Human (%)” value in series [1] worked out at 81.1%. Moreover, the “liver microsomal stability, Rat (%)” value in series [2] amounted to 85.7%. Besides, in series [3] (IV 1 mg/kg), the AUCall is listed as 8149.7 ± 1421.0 hr, ng/mL; the clearance worked out at 2 ± 0.3 mL/min/kg; the half-life is 1.9 ± 0.3 h. Besides, in series [3] (PO 10 mg/kg), the AUCall is reported as 6726.6 ± 2700.2 hr, ng/mL; the Cmax came to 1330 ± 788 ng/mL; the Tmax was found to be 5 ± 2 h. The same molecule showed a F in series [3] of 8.3%.

On to `Cc1cnc(C(=O)Nc2nc3ccc(NN=C(C#N)C#N)cc3s2)cn1` [Compound 93, (2-(5-methylpyrazine-2-carboxamido)benzo[d]thiazol-6-yl)carbonohydrazonoyl dicyanide], for which, in the series on Tau-BiFC cells, the “Cell survival rate (% @ 10 μM)” value worked out at 129.2%. For the same molecule, the “liver microsomal stability, Human (%)” value in series [1] turned out to be 83.9%. Also, in series [2], the “liver microsomal stability, Rat (%)” value came to 63.3%. For the same molecule, in series [3] (IV 1 mg/kg), the AUCall was 6059.4 ± 548.0 hr, ng/mL; the clearance stood at 2.7 ± 0.3 mL/min/kg; the half-life is 1.7 ± 0.1 h. Besides, in series [3] (PO 10 mg/kg), the AUCall was 13884.8 ± 3420.9 hr, ng/mL; the highest level (Cmax) was 2570 ± 423 ng/mL; the Tmax came to 5 ± 1.2 h. Besides, in series [3], the F is given as 22.9%.
